≈ marks a conversion by molar mass, not a printed value.

What all share (type): functional
The test system of one test is Aspergillus fumigatus. Description: Antifungal activity against Aspergillus fumigatus MTCC 3008 after 48 hr by broth microdilution method. As to conditions: MTCC 3008, 48 h.
The next test concerns Vibrio cholerae. Description: Antibacterial activity against Vibrio cholerae MTCC 3906 after 24 hr by broth microdilution method. As to conditions: MTCC 3906, 24 h.
The test system of a further test is Escherichia coli. Description: Antibacterial activity against Escherichia coli MTCC 443 after 24 hr by broth microdilution method. As to conditions: MTCC 443, 24 h.
A further test deals with Salmonella typhi. Description: Antibacterial activity against Salmonella enterica subsp. enterica serovar Typhi MTCC 98 after 24 hr by broth microdilution method. As to conditions: MTCC 98, 24 h.
In a further test the test system is Bacillus subtilis. Description: Antibacterial activity against Bacillus subtilis MTCC 441 after 24 hr by broth microdilution method. As to conditions: MTCC 441, 24 h.
In a further test the test system is Clostridium tetani. Description: Antibacterial activity against Clostridium tetani MTCC 449 after 24 hr by broth microdilution method. As to conditions: MTCC 449, 24 h.
A further test deals with Streptococcus pneumoniae. In words: Antibacterial activity against Streptococcus pneumoniae MTCC 1936 after 24 hr by broth microdilution method. As to conditions: MTCC 1936, 24 h.
The next test relates to Candida albicans. In words: Antifungal activity against Candida albicans MTCC 227 after 48 hr by broth microdilution method. As to conditions: MTCC 227, 48 h.

Regarding `Cc1ccc(Sc2nc3ccccc3cc2-c2c(C#N)c(N)nc(Sc3ccc(C)cc3)c2C#N)cc1`, the MIC against Aspergillus fumigatus was 1000 µg/mL (≈ 1940 µM); in the test on Vibrio cholerae, 200 µg/mL (≈ 388 µM); against Escherichia coli, 250 µg/mL (≈ 485 µM); with Salmonella typhi, 250 µg/mL (≈ 485 µM); against Bacillus subtilis it was 250 µg/mL (≈ 485 µM); in the test with Clostridium tetani, 250 µg/mL (≈ 485 µM). Moreover, the results for the minimal inhibitory concentration (MIC) in the test on Streptococcus pneumoniae and with Candida albicans were 200 µg/mL (≈ 388 µM) and 1000 µg/mL (≈ 1940 µM), respectively.

For `COC1=CC(=O)C[C@@H](C)[C@]12Oc1c(Cl)c(OC)cc(OC)c1C2=O` [GRISEOFULVIN], the results for the minimal inhibitory concentration (MIC) in the test on Aspergillus fumigatus and in the test on Candida albicans were 100 µg/mL (≈ 283 µM) and 500 µg/mL (≈ 1420 µM), respectively.

For `CCn1cc(C(=O)O)c(=O)c2cc(F)c(N3CCNCC3)cc21` [NORFLOXACIN], the MIC in the test on Vibrio cholerae amounted to 10 µg/mL (≈ 31.3 µM); against Escherichia coli, 10 µg/mL (≈ 31.3 µM); in the test on Salmonella typhi it was 10 µg/mL (≈ 31.3 µM); in the test on Bacillus subtilis, 100 µg/mL (≈ 313 µM); with Clostridium tetani it was 50 µg/mL (≈ 157 µM); in the test with Streptococcus pneumoniae it was 10 µg/mL (≈ 31.3 µM).

As for `Cc1ccc2nc(Sc3ccccc3)c(-c3c(C#N)c(N)nc(Sc4ccccc4)c3C#N)cc2c1`, the minimum inhibitory concentration (MIC) against Aspergillus fumigatus came out at 250 µg/mL (≈ 498 µM); with Vibrio cholerae, 250 µg/mL (≈ 498 µM); against Escherichia coli it was 200 µg/mL (≈ 399 µM); in the test on Salmonella typhi, 200 µg/mL (≈ 399 µM); with Bacillus subtilis it was 250 µg/mL (≈ 498 µM); against Clostridium tetani, 250 µg/mL (≈ 498 µM). The MIC was determined as 250 µg/mL (≈ 498 µM) with Streptococcus pneumoniae and 1000 µg/mL (≈ 1990 µM) with Candida albicans.

Take `Cc1ccc2nc(Sc3ccccc3)c(-c3c(C#N)c(N)nc(Sc4ccc(Cl)cc4)c3C#N)cc2c1`: the minimal inhibitory concentration (MIC) came to 250 µg/mL (≈ 466 µM) with Aspergillus fumigatus; 200 µg/mL (≈ 373 µM) against Vibrio cholerae; 50 µg/mL (≈ 93.3 µM) in the test with Escherichia coli; 100 µg/mL (≈ 187 µM) against Salmonella typhi; 500 µg/mL (≈ 933 µM) against Bacillus subtilis; 200 µg/mL (≈ 373 µM) against Clostridium tetani. In addition, the figures for the MIC against Streptococcus pneumoniae and against Candida albicans were 500 µg/mL (≈ 933 µM) and greater than 1000 µg/mL, respectively.

`Cc1ccc2nc(Sc3ccc(Cl)cc3)c(-c3c(C#N)c(N)nc(Sc4ccc(Cl)cc4)c3C#N)cc2c1`: the MIC came to 500 µg/mL (≈ 876 µM) in the test on Aspergillus fumigatus; 200 µg/mL (≈ 351 µM) in the test on Vibrio cholerae; 50 µg/mL (≈ 87.6 µM) with Escherichia coli; 100 µg/mL (≈ 175 µM) in the test with Salmonella typhi; 500 µg/mL (≈ 876 µM) in the test with Bacillus subtilis; 500 µg/mL (≈ 876 µM) against Clostridium tetani. For the same molecule, the MIC in the test with Streptococcus pneumoniae and in the test with Candida albicans was 500 µg/mL (≈ 876 µM) in each case.

As to `Cc1ccc(Sc2nc(N)c(C#N)c(-c3cc4ccccc4nc3Sc3ccccc3)c2C#N)cc1`, the MIC in the test on Aspergillus fumigatus was determined as 250 µg/mL (≈ 498 µM); against Vibrio cholerae, 250 µg/mL (≈ 498 µM); against Escherichia coli it was 100 µg/mL (≈ 199 µM); against Salmonella typhi, 125 µg/mL (≈ 249 µM); with Bacillus subtilis, 200 µg/mL (≈ 399 µM); against Clostridium tetani, 250 µg/mL (≈ 498 µM). In addition, the figures for the minimum inhibitory concentration (MIC) against Streptococcus pneumoniae and against Candida albicans were 250 µg/mL (≈ 498 µM) and 1000 µg/mL (≈ 1990 µM), respectively.

Consider `Cc1ccc(Sc2nc3ccccc3cc2-c2c(C#N)c(N)nc(Sc3ccccc3)c2C#N)cc1`, for which the MIC was greater than 1000 µg/mL with Aspergillus fumigatus; 200 µg/mL (≈ 399 µM) in the test with Vibrio cholerae; 200 µg/mL (≈ 399 µM) with Escherichia coli; 125 µg/mL (≈ 249 µM) against Salmonella typhi; 250 µg/mL (≈ 498 µM) against Bacillus subtilis; 200 µg/mL (≈ 399 µM) against Clostridium tetani. In addition, the minimal inhibitory concentration (MIC) in the test on Streptococcus pneumoniae worked out at 250 µg/mL (≈ 498 µM); with Candida albicans, 500 µg/mL (≈ 997 µM).

For the molecule `N#Cc1c(N)nc(Sc2ccccc2)c(C#N)c1-c1cc2ccccc2nc1Sc1ccc(Cl)cc1`, the MIC was 1000 µg/mL (≈ 1920 µM) with Aspergillus fumigatus; 100 µg/mL (≈ 192 µM) against Vibrio cholerae; 100 µg/mL (≈ 192 µM) with Escherichia coli; 200 µg/mL (≈ 383 µM) with Salmonella typhi; 100 µg/mL (≈ 192 µM) against Bacillus subtilis; 200 µg/mL (≈ 383 µM) against Clostridium tetani. In addition, the minimum inhibitory concentration (MIC) against Streptococcus pneumoniae and against Candida albicans was 200 µg/mL (≈ 383 µM) each time.

Consider `Cc1ccc(Sc2nc3ccc(C)cc3cc2-c2c(C#N)c(N)nc(Sc3ccc(C)cc3)c2C#N)cc1`, for which the MIC was determined as 1000 µg/mL (≈ 1890 µM) in the test with Aspergillus fumigatus; 250 µg/mL (≈ 472 µM) with Vibrio cholerae; 200 µg/mL (≈ 378 µM) against Escherichia coli; 125 µg/mL (≈ 236 µM) against Salmonella typhi; 100 µg/mL (≈ 189 µM) in the test with Bacillus subtilis; 250 µg/mL (≈ 472 µM) in the test with Clostridium tetani. Besides, the MIC was found to be 200 µg/mL (≈ 378 µM) in the test on Streptococcus pneumoniae and 250 µg/mL (≈ 472 µM) in the test with Candida albicans.

As for `N#Cc1c(N)nc(Sc2ccc(Cl)cc2)c(C#N)c1-c1cc2ccccc2nc1Sc1ccc(Cl)cc1`, the MIC with Aspergillus fumigatus was determined as 1000 µg/mL (≈ 1800 µM); in the test on Vibrio cholerae it was 200 µg/mL (≈ 359 µM); with Escherichia coli, 200 µg/mL (≈ 359 µM); against Salmonella typhi it was 200 µg/mL (≈ 359 µM); with Bacillus subtilis, 250 µg/mL (≈ 449 µM); in the test on Clostridium tetani, 500 µg/mL (≈ 898 µM). In addition, the minimal inhibitory concentration (MIC) amounted to 100 µg/mL (≈ 180 µM) against Streptococcus pneumoniae and 500 µg/mL (≈ 898 µM) against Candida albicans.

With `Cc1ccc(Sc2nc(N)c(C#N)c(-c3cc4cc(C)ccc4nc3Sc3ccc(Cl)cc3)c2C#N)cc1`, the MIC came out at 250 µg/mL (≈ 454 µM) in the test on Aspergillus fumigatus; 250 µg/mL (≈ 454 µM) in the test with Vibrio cholerae; 200 µg/mL (≈ 364 µM) with Escherichia coli; 200 µg/mL (≈ 364 µM) against Salmonella typhi; 100 µg/mL (≈ 182 µM) in the test on Bacillus subtilis; 250 µg/mL (≈ 454 µM) against Clostridium tetani. For the same molecule, the minimal inhibitory concentration (MIC) with Streptococcus pneumoniae is 100 µg/mL (≈ 182 µM); with Candida albicans it was greater than 1000 µg/mL.

On to `Cc1ccc(Sc2nc(N)c(C#N)c(-c3cc4cc(C)ccc4nc3Sc3ccccc3)c2C#N)cc1`, for which the MIC in the test with Aspergillus fumigatus came to 500 µg/mL (≈ 970 µM); against Vibrio cholerae, 500 µg/mL (≈ 970 µM); in the test on Escherichia coli it was 250 µg/mL (≈ 485 µM); against Salmonella typhi, 100 µg/mL (≈ 194 µM); in the test on Bacillus subtilis, 500 µg/mL (≈ 970 µM); against Clostridium tetani, 200 µg/mL (≈ 388 µM). Further, the minimum inhibitory concentration (MIC) with Streptococcus pneumoniae was found to be 250 µg/mL (≈ 485 µM); with Candida albicans it was 1000 µg/mL (≈ 1940 µM).

The values are drawn from ChEMBL document CHEMBL3045635, “Synthesis and in vitro antimicrobial evaluation of novel 2-amino-6-(phenylthio)-4-(2-(phenylthio)quinolin-3-yl)pyridine-3,5-dicarbonitriles” (2013).
